Target: Substance P receptors (GPI) (Cavia porcellus, UniProt P30547)
Assay: Substance P antagonist assay in guinea pig ileum with naloxone
Type: cell-based
Conditions: against Substance P induced contraction, 1 μM naloxone, n = 4

Sequence of Substance P receptors (GPI) (P30547 whole entry): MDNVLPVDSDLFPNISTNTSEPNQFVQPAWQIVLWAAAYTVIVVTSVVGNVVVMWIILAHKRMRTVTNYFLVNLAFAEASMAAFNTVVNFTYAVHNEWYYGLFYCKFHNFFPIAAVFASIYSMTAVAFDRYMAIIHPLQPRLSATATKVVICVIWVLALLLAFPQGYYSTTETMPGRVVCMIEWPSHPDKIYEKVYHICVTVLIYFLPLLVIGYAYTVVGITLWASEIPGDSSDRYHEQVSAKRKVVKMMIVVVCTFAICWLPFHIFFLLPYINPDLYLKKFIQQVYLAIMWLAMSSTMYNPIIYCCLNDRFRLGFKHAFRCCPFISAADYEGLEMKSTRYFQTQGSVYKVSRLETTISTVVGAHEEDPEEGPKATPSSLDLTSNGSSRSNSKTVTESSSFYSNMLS

CC(=O)N[C@@H](Cc1c[nH]c2ccccc12)C(=O)OCc1cc(C(F)(F)F)cc(C(F)(F)F)c1 [L-732,138, Ac-Trp-O-3’,5’-Bzl(CF3)2]
Ke, GPI, Substance P antagonist: 250 ± 87 nM

From PMC3521585 (Journal of medicinal chemistry, 2009)
